Results as given in patent publication US7455861B2, “Angelicae sinensis extracts useful for treatment of cancers” (priority 2004, dated 2008).
Like-named read-outs stand apart in the source and are kept apart here.

How the values were obtained:
[1] = test system: GBM cells (DBTRG-05MG); test: Apoptosis of GBM cells by TUNEL; assay type: cell-based, human
Experimental: Apoptotic cell death was analyzed using In Situ Cell Death Detection Kit, POD (Roche, Germany). Changes in DNA chromatin morphologic features were used for quantification. The procedures were performed in accordance with the manufacturer's instructions. […] In AS-C and BP-treated groups, the suspended cells were collected. In the control group, adherent and floating cells were collected. Then, the cells were fixed with 3.7% formaldehyde at room temperature for 15 min. on saline coated slides, washed once in 1×PBS, and incubated in cold permeabilization solution (0.1% Triton X-100+0.1% sodium citrate) after reducing activity of endogenous peroxidase with 3% H2O2. The cells were washed with 1×PBS again, and incubated with terminal deoxynucleiotidyl transferase (TdT)-mediated dUTP nicks labeling (TUNEL) reaction mixture for 60 minutes at 37° C. Then, the cells were washed with 1×PBS, counterstained with propidium iodide (PI) for cell counting. For quantification of apoptosis, the results were viewed under fluorescence microscopy (Nikon, Kawasaki, Japan).
The apoptotic cells with AS-C treatment were detected by fluorescence microscopy (400×), with In Situ TUNEL staining and propidium iodide cell counterstaining, and observed under light field. Likewise, BP induced apoptosis in GBM cells was assessed by TUNEL method and using propidium iodide as a counter stain. […]

[2] = test system: DBTRG-05MG; test: Cytotoxicity (IC50) on DBTRG-05MG; assay type: cell-based; conditions: Homo sapiens
Experimental: (§1) Human tumor cell lines (MCF-7, CL1-5, HT-29, Caco-2), human umbilical vascular endothelial cells (HUVEC), and human dermal fibroblasts (HDF) were tested for sensitivity on Angelicae sinensis extracts, ligustilide, n-butylidenephthalide and its derivatives in vitro. The DBTRG-05MG, BCM, HL-60 and J5 cells were grown in RPMI-1640 medium containing 10% fetal calf serum and 100 ng/ml penicillin and […] streptomycin at 37° C. in a humidified atmosphere with 5% CO2. The G5T/VGH, RG2, Ni 8, SVEC and Balb/3T3 cells were cultured in DMEM with 10% fetal calf serum and 100 ng/ml penicillin and […] streptomycin at 37° C. in 5% CO2. Mycoplasma infection of the culture cells was excluded by PCR screening methods before each experiment.
The effects on cell viability after the treatments with different concentrations of the Angelicae sinensis extracts or the active components purified therefrom were evaluated by modified MTT assay in triplicate. Briefly, the cells (5×10^3) were incubated into 96-well plates containing 100 μl of a growth medium. The cells were permitted to adhere for 24 hours, then treated with 100 μl of the herbal extracts or the active components dissolved in the medium. The control contained DMSO of <0.02% (v/v). After 24, 48 and 72 h incubation, the drug-containing medium was replaced by 50 μl of fresh medium, and cells in each well were incubated in 50 μl of 400 μg/ml MTT for 6-8 h. The medium and MTT were removed later and 100 μl of DMSO was added to each well and to the control, to dissolve the soluble components. Absorbance at 550 nm of the solutions was measured with MRX Microtiter Plate Luminometer (DYNEX, USA). The absorbance of untreated cells was considered as 100%. To evaluate the effects of the extracts or the active components on cell growth rate of GBM cells, 5×10^3 exponentially growing cells were treated with different concentrations for 24, 48, or 72 h. The cytotoxicity of each test substance was determined as an IC50 value, which represents the drug concentration required to cause 50% inhibition. […]

[3] = Cytotoxicity (IC50) on Balb/3T3; assay type: cell-based; conditions: mouse, Balb/3T3 cells
Experimental: as §1
The effects on cell viability after the treatments with different concentrations of the Angelicae sinensis extracts or the active components purified therefrom were evaluated by modified MTT assay in triplicate. Briefly, the cells (5×10^3) were incubated into 96-well plates containing 100 μl of a growth medium. The cells were permitted to adhere for 24 hours, then treated with 100 μl of the herbal extracts or the active components dissolved in the medium. The control contained DMSO of <0.02% (v/v). […] Absorbance at 550 nm of the solutions was measured with MRX Microtiter Plate Luminometer (DYNEX, USA). The absorbance of untreated cells was considered as 100%. […]

[4] = Cytotoxicity (IC50) on HUVEC; assay type: cell-based, human; conditions: human, human umbilical vascular endothelial cells (HUVEC), normal cells, read-out: Cytotoxicity, IC50 HUVEC
Description: Human umbilical vascular endothelial cells (HUVECs) were purchased from Cascade Biologics, Inc. (USA). HUVECs were maintained in Medium 200 (Cascade Biologics, Inc. USA) supplemented with 10% fetal bovine serum (FBS; Gibco BRL) and low serum growth supplement (LSGS; Cascade Biologics, Inc. USA). Human dermal fibroblasts (HDFs) were purchased from Cascade Biologics, Inc. (USA). HDFs were maintained in Medium 106 (Cascade Biologics, Inc. USA) supplemented with 10% FBS and low serum growth supplement (LSGS; Cascade Biologics, Inc. USA). The human colon adenocarcinoma cell lines HT-29 were purchased from the ATCC (Manassas, Va. USA). HT-29 were maintained in Dubecco's Modified Eagle Medium (DMEM; Gibco) supplemented with 10% FBS and 100 ng/ml penicillin and […] streptomycin (Life Technologies, Inc., Grand Island, N.Y., USA). For the proliferation assay of cell in log growth (G1), the cells were harvested at 60-80% of confluence. 100 μl of cell suspensions were dispensed onto a Falcon 96-well plates The densities were 6×10^3 cells/well in Medium 200 (for HUVECs), and 9×10^3 cells/well in Medium 106 (for HDFs), and 5×10^3 cells/well in DMEM (for HT-29) supplemented with 10% FBS. The cells were pre-incubated for 24 hours in an incubator (Humidified atmosphere, e.g., at 37° C., 5% CO2). 10 μl of toxicant of various concentrations were added into the culture medium of the plate. The cell cultures were incubated for 48 hours. 10 μl of the Cell Counting Kit-8 (CCK-8; DOJINDO) solution were added and the cell cultures incubated for 1˜4 hours in the incubator. The absorbance was measured at 450 nm, using a microplate reader with a reference wavelength at 600 nm or over.
as §1
The effects on cell viability after the treatments with different concentrations of the Angelicae sinensis extracts or the active components purified therefrom were evaluated by modified MTT assay in triplicate. Briefly, the cells (5×10^3) were incubated into 96-well plates containing 100 μl of a growth medium. The cells were permitted to adhere for 24 hours, then treated with 100 μl of the herbal extracts or the active components dissolved in the medium. The control contained DMSO of <0.02% (v/v). After 24, 48 and 72 h incubation, the drug-containing medium was replaced by 50 μl of fresh medium, and cells in each well were incubated in 50 μl of 400 μg/ml MTT for 6-8 h. The medium and MTT were removed later and 100 μl of DMSO was added to each well and to the control, to dissolve the soluble components. Absorbance at 550 nm of the solutions was measured with MRX Microtiter Plate Luminometer (DYNEX, USA). The absorbance of untreated cells was considered as 100%. To evaluate the effects of the extracts or the active components on cell growth rate of GBM cells, 5×10^3 exponentially growing cells were treated with different concentrations for 24, 48, or 72 h. The cytotoxicity of each test substance was determined as an IC50 value, which represents the drug concentration required to cause 50% inhibition. All experiments in this study were performed in triplicate.

Question: Which results are given for `CCCC=C1OC(=O)c2ccccc21` [BP, n-Butylidenephthalide]?
Answer: apoptosis rates of GBM cells compared to untreated cells (TUNEL) ([1]; BP 5 to 800 μM, 48 hours): much higher; detached GBM cells having undergone apoptosis (TUNEL) ([1]; BP 5˜800 μg/ml as printed, 72 hours): almost all; IC50 ([2]; Table 2, read-out: Cytotoxicity (IC50) DBTRG-05MG): 7 to 10 µg/mL; IC50 ([2]; Table 2, value in parentheses, read-out: Cytotoxicity (IC50) DBTRG-05MG): 37.2 to 53.2 µM; IC50 ([3]; Table 2): > 300 µg/mL; IC50 ([3]; Table 2, value in parentheses): > 1600 µM; IC50 ([4]; Table 1, value in parentheses): > 532 µM; IC50 ([4]; Table 1): > 100 µg/mL
